{"source": "patent US20080319042A1", "about": "“Compositions and methods for treatment of liver disease” (priority 2007, published 2008)", "tested_on": "Hep G2 2.2.15 cells", "experiment": "Cytotoxicity Assay (MTT)", "format": "cell-based, human", "description": "Hep G2 2.2.15 cells (120 μl) were seeded onto 96-well plates at a concentration of 2×10^5 cells/mL. After incubation for 72 h, serial dilutions of the test samples were added to monolayer Hep G2 2.2.15 cells, and culture at 37° C. in a humidified atmosphere of 5% CO2 in air for an additional 9 days, and the medium with sample was changed every 3 days, 10 μL 10% aqueous DMSO was used as control group. After incubation, the supernatant was taken out and 90 μL of DMEM and 10 μL of the 5 mg/ml MTT (3-[4,5-dimethylthiazol-2-yl]-2,5-diphenyltetrazolium bromide) solution was then added to each well, and the plates were incubated for an additional 3 hours. The MTT was removed, and to each well was added 100 μl of DMSO. The plates were agitated on an orbital shaker at 50 rpm at room temperature for 5 min. The optical density of each sample was measured at 490 nm. The percent absorbance of the samples treated with the test material was compared to the untreated sample to calculate the percentage of control. Data are expressed as relative viability, with cytotoxicity indicated by <100% relative viability.", "data": [{"smiles": "COC(=O)C1=COC(O)C2C1C(O)C(O)C2(C)O", "note": "(mixture of isomers) [lamiridosin]", "values": [{"measurement": "Toxicity to Hep G2 2.2.15 cells (Table 2)", "setting": "75 μg/mL", "result": "Toxic"}, {"measurement": "Toxicity to Hep G2 2.2.15 cells (Table 2)", "setting": "150 μg/mL", "result": "Toxic"}, {"measurement": "cytotoxicity to the Hep G2 2.2.15 cells", "setting": "at doses greater than 50 μg/ml", "result": "non-cytotoxic"}]}]}
